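Five concentrations, 48 hours, 96-well plates. GI50 is the concentration that inhibits growth by half.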 Calls of active or inactive are those of the source. Cut-off read from the data, not from the text of the source: active = GI50 up to about 1.1 µM and inactive = higher.

Consider five molecules from ChEMBL document CHEMBL1201862, “PubChem BioAssay data set” (2004).

Assay in all cases: NCI-60 cell line screen, 48 h
In experiment [1] the test system is 786-0.
In experiment [2] the test system is A549.
For experiment [3], the system named is ACHN.
Experiment [4] has as its system BT-549.
For experiment [5], the system named is CAKI-1.
The subject of experiment [6] is HOP-92.
Experiment [7] has as its system HT-29.
Experiment [8] has as its system IGROV-1.
The subject of experiment [9] is K562.
In experiment [10] the test system is KM12.
In experiment [11] the test system is M14.
Experiment [12] has as its system MCF7.
Experiment [13] concerns Malme-3M.
Experiment [14] has as its system OVCAR-8.
The test system of experiment [15] is RXF 393.
The subject of experiment [16] is SF-295.
The test system of experiment [17] is SK-MEL-5.
In experiment [18] the test system is SNB-75.
The subject of experiment [19] is U-251.
Experiment [20] has as its system UACC-62.

As for `CCOC(=O)c1c(SCCN2CCCC2)n(-c2ccccc2)c(=S)n(-c2ccccc2)c1=O`, the GI50 in experiment [1] is 1.55 µM (inactive); in [2] it was 4.02 µM (inactive); in experiment [3], 1.72 µM (inactive); in experiment [4], 5.37 µM (inactive); in experiment [5] it was 2.29 µM (inactive); in experiment [6] it was 1.6 µM (inactive). In addition, the GI50 in [7] was 4.89 µM (inactive); in experiment [8], 2.03 µM (inactive); in [9], 2.12 µM (inactive); in [10], 15.8 µM (inactive); in [11], 1.75 µM (inactive); in experiment [12], 1.19 µM (inactive). For the same molecule, the GI50 was 1.56 µM (inactive) in [13]; 1.95 µM (inactive) in experiment [14]; 1.74 µM (inactive) in experiment [15]; 28.3 µM (inactive) in experiment [16]; 3.07 µM (inactive) in [17]; 6.93 µM (inactive) in experiment [18]. Also, the GI50 in [19] was 6.14 µM (inactive); in experiment [20], 2.79 µM (inactive).
As for `O=c1n(-c2ccc(Cl)c(Cl)c2)c(=O)n(-c2ccc(Cl)c(Cl)c2)c(=O)n1-c1ccc(Cl)c(Cl)c1`, the GI50 was 2.78 µM (inactive) in [1]; 2.09 µM (inactive) in experiment [2]; 2.39 µM (inactive) in experiment [3]; 2.88 µM (inactive) in experiment [4]; 3.49 µM (inactive) in experiment [5]; 0.0144 µM (active) in experiment [6]. Further, the GI50 in experiment [7] was 2.59 µM (inactive); in experiment [8] it was 3.21 µM (inactive); in [9], 2.06 µM (inactive); in experiment [10] it was 2.91 µM (inactive); in experiment [11] it was 3.2 µM (inactive); in experiment [12], 1.82 µM (inactive). Also, the GI50 in [13] was 3.3 µM (inactive); in experiment [14], 3.54 µM (inactive); in experiment [15], 3.21 µM (inactive); in experiment [16], 2.47 µM (inactive); in experiment [17], 1.9 µM (inactive); in experiment [18] it was 2.53 µM (inactive). In addition, the GI50 in experiment [19] was 3.71 µM (inactive); in experiment [20], 4.27 µM (inactive).
In the case of `CCNc1nc(N)c(C(=O)c2cccs2)s1`, the GI50 in experiment [1] is 26.6 µM (inactive); in experiment [2], 29.8 µM (inactive); in experiment [3], 22.3 µM (inactive); in experiment [4], 20.8 µM (inactive); in [5], 8.69 µM (inactive); in experiment [6], 41.2 µM (inactive). The GI50 was 17.2 µM (inactive) in experiment [7]; 10.6 µM (inactive) in [8]; 25.9 µM (inactive) in [9]; 11.8 µM (inactive) in [10]; 37.8 µM (inactive) in experiment [11]; 22 µM (inactive) in experiment [12]. The GI50 is 43.3 µM (inactive) in experiment [13]; 24.7 µM (inactive) in [14]; 3.42 µM (inactive) in experiment [15]; 34 µM (inactive) in [16]; 18.1 µM (inactive) in [17]; 10.4 µM (inactive) in [18]. For the same molecule, the GI50 in experiment [19] was 22.5 µM (inactive); in experiment [20], 24.2 µM (inactive).
Turning to `CC1=CC2(O)OC3(CC2=C(C)C)C(C)CCC13` (stereo not given), the GI50 in experiment [1], in experiment [2], in experiment [3], in experiment [4], in [5] and in experiment [6] was > 100 µM (inactive) each time. Further, the GI50 in experiment [7], in [8], in experiment [9], in experiment [10], in experiment [11] and in [12] was > 100 µM (inactive) each time. The GI50 is > 100 µM (inactive) in [13]; > 100 µM (inactive) in experiment [14]; > 100 µM (inactive) in [15]; > 100 µM (inactive) in experiment [16]; > 100 µM (inactive) in experiment [17]; 58.5 µM (inactive) in [18]. Moreover, the GI50 in [19] and in [20] was > 100 µM (inactive) in each case.
In the case of `C=C1C(=O)O[C@@H]2C[C@]3(C)CC[C@]4(C)[C@H](CC[C@@H]5[C@@]6(C)CCC(=O)C(C)(C)[C@@H]6CC[C@]54C)[C@H]3[C@H]12` [OCHRACEOLIDE A], the GI50 in experiment [1] was 13.7 µM (inactive); in [2] it was 22.2 µM (inactive); in [3], 11.9 µM (inactive); in experiment [4], 16.1 µM (inactive); in experiment [5] it was 13.1 µM (inactive); in [6], 9.31 µM (inactive). Also, the GI50 in [7] was 20.6 µM (inactive); in experiment [8], 18.7 µM (inactive); in [9], 4.45 µM (inactive); in experiment [10], 19.2 µM (inactive); in experiment [11] it was 14.6 µM (inactive); in [12], 4.81 µM (inactive). Besides, the GI50 in experiment [13] was 15.8 µM (inactive); in [14], 13.7 µM (inactive); in [15], 16.6 µM (inactive); in experiment [16], 17.8 µM (inactive); in experiment [17] it was 12.5 µM (inactive); in experiment [18] it was 20.7 µM (inactive). The GI50 was 19 µM (inactive) in [19] and 16.9 µM (inactive) in [20].
